# Test results taken from paper PMC7583961, “Development and Validation of an LC-MS/MS Assay to Quantitate 2′,4′,6′-Trihydroxyacetophenone in Rat and Dog Plasma and its Application to a Pharmacokinetic Study” (Molecules, 2020).
# Tests used:
# [1] = Pharmacokinetic study of orally administered THAP in rats (LC-MS/MS of plasma, noncompartmental analysis); assay type: in vivo, Sprague Dawley rats; conditions: for AUC(0-t) / Cmax / Tmax / half-life: plasma, rat, mean ± SD, n = 5
# Experimental: (§1) Healthy Sprague Dawley rats (n = 15, mean ± SD weight 261.4 ± 6.8 g) and beagle dogs (n = 10, mean ± SD weight 9.85 ± 0.60 kg) were purchased from Orient Bio Inc. (Seongnam, Korea). The animals were kept in a light-controlled room at 22 ± 2 °C with relative humidity of 55 ± 5% in the Animal Center of Korea Preclinical Center (Gyeonggi-do, Korea). The pharmacokinetic study protocols (KPC-E2019099 for rats and KPC-M2019046 for dogs) were approved by the Animal Care and Use Committee of the Korea Preclinical Center (Gyeonggi-do, Korea).
# (§2) Chromatographic separation was performed using an Agilent 1200 Series HPLC (Agilent Technologies, Inc., Palo Alto, CA, USA) system with a Gemini C18 column (50 × 2.0 mm, 3 µm, Phenomenex, Torrance, CA, USA) protected by a guard column at 40 °C. The mobile phase composed of 10 mM ammonium formate in water and methanol (10:90, v/v) was isocratically pumped into the HPLC system at a flow rate of 0.2 mL/min with a total run time of 2.5 min. The column was eluted into an API 4000 triple quadrupole mass spectrometer (Applied Biosystems, Framingham, Massachusetts, USA), operating in the multiple reaction monitoring (MRM) mode with a negative ion electrospray source. The optimized instrument settings were as follows: curtain gas flow of 20 L/h; collision gas flow of 6 L/h; ion source gas 1 pressure of 50 psi; ion source gas 2 pressure of 60 psi; ion spray voltage of −4500 V; and temperature of 500 °C. The precursor ions of THAP and IS were generated using declustering potentials of −100 and −75 V, respectively, and they were fragmented at a collision energy of −28 and −24 eV, respectively. The molecular mass transitions from precursor to product ion were optimized at m/z 166.89 > 82.8 for THAP and at 152.89 > 82.8 for IS. Data were processed using Analyst® program (Ver. 1.6.2, AB SCIEX, Toronto, ON, Canada).
# (§3) Plasma samples were stored in a deep freezer at −70 °C and thawed at room temperature. An aliquot of each plasma sample (10 μL) was transferred to 1.75 mL microtubes (Axygen Scientific, Inc., California, USA). In each microtube, 20 μL of IS (2 μg/mL) and 500 μL of 100% cold acetonitrile were added and then vortexed for 10 min. After centrifugation at 20,800× g for 15 min, 50 μL of the supernatant was pipetted into a 2.0 mL microtube and diluted with 350 μL of 50% acetonitrile (v/v). After being vortexed for 10 min and centrifuged at 20,800× g at 4 °C for 10 min, a 2 μL aliquot was injected into the LC-MS/MS system for quantitation.
# (§4) Male rats orally received a single dose of THAP (250, 500, or 750 mg/kg) dissolved in deionized water containing 2% CMC by gavages. Serial blood samples (0.22 mL each) were collected via the right jugular vein immediately before (0 h) and at 0.5, 1, 2, 3, 4, 6, 9, 12, 24, and 48 h (n = 5 per each sample time) post-dosing. Male dogs received a single oral dose of THAP tablet (500 mg) as either an immediate-release tablet (Group 1) or a sustained-release tablet (Group 2) (Table 5). Blood samples (1.0 mL) were drawn from a median vein of a forelimb at the following time points after the administration of THAP: 0.5, 1, 1.5, 2, 3, 4, 6, 8, 12, and 24 h (n = 5 per each sample time). After sampling blood from the animals, the cannula was flushed with an equal volume of heparinized saline solution (50 U/mL) to prevent coagulation and to replace the blood loss. Heparin was used as an anticoagulant throughout the study procedure. Plasma was harvested by centrifugation at 4 °C, 1700× g for 10 min and then stored at −70 °C before quantification. Noncompartmental analysis was performed to calculate the AUClast and T1/2 of THAP using WinNonlin version 8.1 (Pharsight Corporation, Mountain View, CA). The Cmax and Tmax of THAP were determined based on the individual plasma THAP concentration–time profiles.
# [2] = Pharmacokinetic study of oral THAP IR or SR tablets in dogs (LC-MS/MS of plasma, noncompartmental analysis); assay type: in vivo; conditions: male, beagle; for AUC(0-t) / Cmax / Tmax / half-life: dog, plasma, po, 500 mg, mean ± SD, n = 5
# Experimental: as §1, §2, §3, §4
# [3] = Stability of THAP in dog plasma; assay type: in vitro ADME; conditions: for Plasma Stability (Mean %) Long-Term (−70 °C): 32 days; for Plasma Stability (Mean %) Long-Term (−70 °C) / Plasma Stability (Mean %) 4 °C (7 h) / Plasma Stability (Mean %) Autosampler (44 h, 10 °C) / Plasma Stability (Mean %) Freeze-Thaw Stability (5 Cycles) / Plasma Stability (Mean %) Room Temperature (7 h) / Plasma Stability (Mean %) −70 °C (7 h): n = 3
# Experimental: (§5) The stability of THAP in rat and dog plasma was examined under the following conditions at concentrations of 0.3, 25, and 80 µg/mL (n = 3): freeze-thaw stability after five freeze-thaw cycles at −70 °C; short-term stability at room temperature, 4 °C, and −70 °C for 7 h; autosampler stability at 10 °C for 44 h; and long-term stability at −70 °C for 56 days and 32 days in rat and dog plasma, respectively. The stability of the stock solution at low (0.3 µg/mL) and high (80 µg/mL) QC concentrations (n = 3) stored at room temperature for 7 h was also tested by comparing their peak areas to those of freshly prepared stock solutions.
# [4] = Stability of THAP in rat plasma; assay type: in vitro ADME; conditions: for Plasma Stability (Mean %) Long-Term (−70 °C): 56 days; for Plasma Stability (Mean %) Long-Term (−70 °C) / Plasma Stability (Mean %) 4 °C (7 h) / Plasma Stability (Mean %) Autosampler (44 h, 10 °C) / Plasma Stability (Mean %) Freeze-Thaw Stability (5 Cycles) / Plasma Stability (Mean %) Room Temperature (7 h) / Plasma Stability (Mean %) −70 °C (7 h): n = 3
# Experimental: as §5
# [5] = Stability of THAP stock solution at room temperature; assay type: physicochemical; conditions: room temperature 7 h, n = 3
# Experimental: as §5
# [6] = male, Sprague Dawley, oral 250 mg/kg aqueous solution (Group 1)
# [7] = male, Sprague Dawley, oral 500 mg/kg aqueous solution (Group 2)
# [8] = male, Sprague Dawley, oral 750 mg/kg aqueous solution (Group 3)
# [9] = oral 500 mg THAP immediate-release tablet (Group 1)
# [10] = oral 500 mg THAP sustained-release tablet (Group 2)
# [11] = range over 0.3, 25 and 80 µg/mL
structure (smiles),measurement,setting,value
"CC(=O)c1c(O)cc(O)cc1O [THAP, 2′,4′,6′-trihydroxyacetophenone]",AUC(0-t),[1]; [6],80.9 ± 11.8 µg·h/mL
same,Cmax,[1]; [6],64200 ± 16300 ng/mL
same,Tmax,[1]; [6],0.5 h
same,half-life,[1]; [6],11.3 ± 0.9 h
same,AUC(0-t),[1]; [7],150 ± 35.8 µg·h/mL
same,Cmax,[1]; [7],81300 ± 32300 ng/mL
same,Tmax,[1]; [7],0.5 h
same,half-life,[1]; [7],8.3 ± 1.2 h
same,AUC(0-t),[1]; [8],302 ± 113 µg·h/mL
same,Cmax,[1]; [8],147000 ± 44600 ng/mL
same,Tmax,[1]; [8],0.5 h
same,half-life,[1]; [8],8 ± 1.5 h
same,concentration at 12 h,"[1]; male, Sprague Dawley, rat plasma sample of R06, 12 h after oral administration of THAP 500 mg/kg, read-out: measured plasma concentration of THAP",374 ng/mL
same,plasma THAP concentrations close to the peak concentration,"[1]; rats, THAP dose of 500 mg/kg and 750 mg/kg, above ULOQ",greater than 100 µg/mL
same,AUC(0-t),[2]; [9],89.9 ± 32.8 µg·h/mL
same,Cmax,[2]; [9],24500 ± 5000 ng/mL
same,Tmax,[2]; [9],1 ± 1.1 h
same,half-life,[2]; [9],6.1 ± 4.6 h
same,AUC(0-t),[2]; [10],130 ± 49.4 µg·h/mL
same,Cmax,[2]; [10],18800 ± 8500 ng/mL
same,Tmax,[2]; [10],6 ± 1.6 h
same,half-life,[2]; [10],6.4 ± 1.6 h
same,concentration at 24 h,"[2]; dog plasma sample of R05, 24 h after oral administration of THAP 500 mg immediate-release tablet, read-out: measured plasma concentration of THAP",302 ng/mL
same,Plasma Stability (Mean %) Long-Term (−70 °C),[3]; nominal 0.3 µg/mL,102.89%
same,Plasma Stability (Mean %) 4 °C (7 h),[3]; nominal 0.3 µg/mL,111.89%
same,"Plasma Stability (Mean %) Autosampler (44 h, 10 °C)",[3]; nominal 0.3 µg/mL,99.67%
same,Plasma Stability (Mean %) Freeze-Thaw Stability (5 Cycles),[3]; nominal 0.3 µg/mL,101.33%
same,Plasma Stability (Mean %) Room Temperature (7 h),[3]; nominal 0.3 µg/mL,109.89%
same,Plasma Stability (Mean %) −70 °C (7 h),[3]; nominal 0.3 µg/mL,109.56%
same,Plasma Stability (Mean %) Long-Term (−70 °C),[3]; nominal 25 µg/mL,103.95%
same,Plasma Stability (Mean %) 4 °C (7 h),[3]; nominal 25 µg/mL,105.57%
same,"Plasma Stability (Mean %) Autosampler (44 h, 10 °C)",[3]; nominal 25 µg/mL,106.75%
same,Plasma Stability (Mean %) Freeze-Thaw Stability (5 Cycles),[3]; nominal 25 µg/mL,105.31%
same,Plasma Stability (Mean %) Room Temperature (7 h),[3]; nominal 25 µg/mL,106.66%
same,Plasma Stability (Mean %) −70 °C (7 h),[3]; nominal 25 µg/mL,105.88%
same,Plasma Stability (Mean %) Long-Term (−70 °C),[3]; nominal 80 µg/mL,99.45%
same,Plasma Stability (Mean %) 4 °C (7 h),[3]; nominal 80 µg/mL,98.87%
same,"Plasma Stability (Mean %) Autosampler (44 h, 10 °C)",[3]; nominal 80 µg/mL,97.58%
same,Plasma Stability (Mean %) Freeze-Thaw Stability (5 Cycles),[3]; nominal 80 µg/mL,98.41%
same,Plasma Stability (Mean %) Room Temperature (7 h),[3]; nominal 80 µg/mL,98.17%
same,Plasma Stability (Mean %) −70 °C (7 h),[3]; nominal 80 µg/mL,97.32%
same,long-term stability at −70 °C for 32 days,[3]; [11],99.45–103.95%
same,stability in the autosampler at 10 °C for 44 h,[3]; [11],97.58–106.75%
same,stability over five freeze-thaw cycles,[3]; [11],98.41–105.31%
same,Plasma Stability (Mean %) Long-Term (−70 °C),[4]; nominal 0.3 µg/mL,111.67%
same,Plasma Stability (Mean %) 4 °C (7 h),[4]; nominal 0.3 µg/mL,99.22%
same,"Plasma Stability (Mean %) Autosampler (44 h, 10 °C)",[4]; nominal 0.3 µg/mL,105.00%
same,Plasma Stability (Mean %) Freeze-Thaw Stability (5 Cycles),[4]; nominal 0.3 µg/mL,101.00%
same,Plasma Stability (Mean %) Room Temperature (7 h),[4]; nominal 0.3 µg/mL,98.22%
same,Plasma Stability (Mean %) −70 °C (7 h),[4]; nominal 0.3 µg/mL,98.11%
same,Plasma Stability (Mean %) Long-Term (−70 °C),[4]; nominal 25 µg/mL,104.15%
same,Plasma Stability (Mean %) 4 °C (7 h),[4]; nominal 25 µg/mL,106.91%
same,"Plasma Stability (Mean %) Autosampler (44 h, 10 °C)",[4]; nominal 25 µg/mL,104.80%
same,Plasma Stability (Mean %) Freeze-Thaw Stability (5 Cycles),[4]; nominal 25 µg/mL,102.84%
same,Plasma Stability (Mean %) Room Temperature (7 h),[4]; nominal 25 µg/mL,101.62%
same,Plasma Stability (Mean %) −70 °C (7 h),[4]; nominal 25 µg/mL,109.87%
same,Plasma Stability (Mean %) Long-Term (−70 °C),[4]; nominal 80 µg/mL,99.39%
same,Plasma Stability (Mean %) 4 °C (7 h),[4]; nominal 80 µg/mL,100.98%
same,"Plasma Stability (Mean %) Autosampler (44 h, 10 °C)",[4]; nominal 80 µg/mL,100.58%
same,Plasma Stability (Mean %) Freeze-Thaw Stability (5 Cycles),[4]; nominal 80 µg/mL,99.62%
same,Plasma Stability (Mean %) Room Temperature (7 h),[4]; nominal 80 µg/mL,100.47%
same,Plasma Stability (Mean %) −70 °C (7 h),[4]; nominal 80 µg/mL,101.61%
same,long-term stability at −70 °C for 56 days,[4]; [11],99.39–111.67%
same,stability in the autosampler at 10 °C for 44 h,[4]; [11],100.58–105.00%
same,stability over five freeze-thaw cycles,[4]; [11],99.62–102.84%
same,mean percentage peak area of stock solution vs freshly prepared stock solution,[5]; 0.3 µg/mL,102.15%
same,mean percentage peak area of stock solution vs freshly prepared stock solution,[5]; 80 µg/mL,100.92%
